Source: article doi:10.1101/2024.07.10.602890, “H105A peptide eye drops promote photoreceptor survival in murine and human models of retinal degeneration” (bioRxiv, 2024)
Ends that are not written are not given here.

How the values were obtained:
Rho^P23H/+ mice = assay: H105A eye drops in Rho P23H/+ mice: BAX/BCL2 immunofluorescence, ONL and OS thickness; format: in vivo, mouse
Method: Fig. 6: Effects of eye drops containing H105A peptide in the photoreceptors of RhoP23H/+ mice (A) Scheme of experimental design. Daily peptide eye drops (5 μl of 1mg/ml peptide) were applied to mice starting at P14 until P19 when immunofluorescence of retinal cross sections was performed. The contralateral control eyes were treated with vehicle HBSS. (B) Immunostaining was performed with antibodies against BAX or BCL2 (green), and DAPI (blue). Histograms show quantification of immunofluorescence intensity for BAX and BCL2 markers. […] Each individual data point represents the average of one retina, with statistical significance determined by unpaired t-test (****p < 0.00001). Scale bar = 10 μm. […] (D) Quantification of ONL thickness represented in the spider graph confirmed a significant preservation in the ventral retina. […] Presented as average ± SEM, with statistics performed using One-way ANOVA * p<0.05
Eyes from Rho^P23H/+ mice eyes were enucleated and fixed in Davidson’s fix (Formaldehyde 8% (Merck, cat. F8775); Ethanol 32% (Carlo Erba, cat. 414608); Acetic Acid 10% (Merck, cat. 695092) over-night. After embedding in paraffin, 14 μm sections were collected. For TUNEL, sections were treated with 0.1 M Citrate Buffer pH 6 (Tri-sodium Citrate 10 mM (Carlo Erba, cat. 368007); Citric Acid 0.2 mM (Merck, cat: 251275) in microwave for 5 minutes, then labeling was performed for one hour at 37°C using a In Situ Cell Death Detection Kit (Merck, cat. 12156792910). Rod photoreceptors were labeled with anti-RHO 1D4 antibody followed by Alexa Fluor 568 anti-mouse secondary antibody (see Table S3). Cone photoreceptors were labeled with peanut agglutinin (PNA, Vector Laboratories, cat. FL-1071). GFP localization in control transduced retinas was identified with specific anti-GFP antibodies and Alexa Fluor 488 anti-mouse secondary antibody (see Table S3). For nuclear staining, 0.1 μg/mL DAPI was used. Slides were mounted with Mowiol 4–88 (Merck) and images acquired with a Zeiss Axio Imager A2 fluorescence microscope. To count TUNEL positive cells the RETINA Analysis Tool kit for ImageJ was used ([52]).
To generate spider plots, the ONL thickness was measured from images acquired with light microscopy of the retina sections stained with H&E or images of retina sections stained with DAPI with a dorsal-ventral orientation. The ONL thickness in the entire retina sections was measured at 5 different positions from both sides of the optic nerve (ON) using ImageJ, as described before ([28]). Alternatively, for DAPI stained images, a customed macro implemented in ImageJ was used to select only the ONL.

[1] = Stability of peptide H105A against temperature (Table S2); format: physicochemical
Method: Lyophilized peptides were dissolved in sterile HBSS at 1 mg/ml and stored at −20 °C. Before the peptides were used, the peptide solution was brought to room temperature and subjected to centrifugation (Eppendorf, Centrifuge 5430R) at 20,800 g for 10 min at 4°C to clear and separate particulate material. In case a precipitate was found, the pH of the solution was adjusted to neutral pH with either NaOH or HCl and all peptides were soluble. The concentration of peptide solutions was determined using spectrophotometry (NanoDrop, Thermo Fisher Scientific).
Table S2. Stability of 17-mer[H105A] peptide.
Concentration (mg/mL) Store Concentration (mg/mL)
*FT, Freeze and thaw cycles daily

[2] = daily eye drops 5 μl of 1 mg/ml P14 to P19, vs contralateral HBSS

QRTESIIARALYYDLIS [H105A]
BAX level (immunofluorescence) (Rho^P23H/+ mice; [2]): attenuated the levels of BAX
BCL2 level (immunofluorescence) (Rho^P23H/+ mice; [2]): increased BCL2
outer segments (OS) of rod photoreceptors labeled by rhodopsin (Rho^P23H/+ mice; daily eye drops P14 to P19, P19, n = 9): significantly preserved
ONL thickness (Rho^P23H/+ mice; daily eye drops P14 to P19, assessed at P19): significant preservation in the ventral part of the retina
Concentration Day1 ([1]; sample 1, before storage at RT, peptide solution, spectrophotometry (NanoDrop)): 1040 µg/mL
Concentration Day1 ([1]; sample 2, before storage at 4°C): 1040 µg/mL
Concentration Day1 ([1]; sample 3, before storage at -20°C): 1040 µg/mL
Concentration Day1 ([1]; sample 4, before storage at -20°C [FT]): 1040 µg/mL
